From patent publication US8436159B2, “Glyphosate resistant class I 5-endolpyruvylshikimate-3-phosphate synthase (EPSPS)” (Monsanto Technology LLC, priority 2003, dated 2013)

Target: T1, maize (Zea mays) class I EPSPS variant TIPS (T102I, P106S), pMON70462 (Zea mays, UniProt O24566, P106S/T102I)
T1 construct: pMON70462
T1 sequence (O24566 1-444 T102I/P106S): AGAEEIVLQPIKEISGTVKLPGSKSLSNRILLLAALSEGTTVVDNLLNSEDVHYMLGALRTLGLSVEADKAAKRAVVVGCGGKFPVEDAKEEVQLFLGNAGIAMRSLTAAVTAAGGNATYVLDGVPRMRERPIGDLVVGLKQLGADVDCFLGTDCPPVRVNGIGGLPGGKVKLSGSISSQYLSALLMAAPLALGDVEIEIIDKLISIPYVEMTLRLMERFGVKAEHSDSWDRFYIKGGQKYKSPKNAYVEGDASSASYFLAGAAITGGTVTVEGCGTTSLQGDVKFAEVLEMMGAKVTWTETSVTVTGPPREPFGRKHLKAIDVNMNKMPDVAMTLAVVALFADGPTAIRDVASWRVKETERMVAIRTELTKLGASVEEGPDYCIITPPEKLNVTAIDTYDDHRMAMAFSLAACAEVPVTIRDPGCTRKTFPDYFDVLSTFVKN
Experiment: EPSPS steady-state kinetics, TIPS variant
Type: biochemical
Method: The wild type and variant EPSPS coding sequences were cloned into a pET-19b base vector (Novagen, Madison, Wis.). The plant (maize) class I EPSPS variants so created were assigned pMON plasmid numbers (Table 2). The variant EPSPS proteins were purified from the E. coli host using the protocols outlined in the pET system manual, 9th edition (Novagen) or by the following method. A single colony or a few microliters from a glycerol stock was inoculated into 4 mL LB medium containing 0.1 mg/mL carbenicillin antibiotic. The culture was incubated with shaking at 37 C for 4 hours. The cultures were stored at 4° C. overnight. The following morning, 1 mL of the overnight culture was used to inoculate 100 mL of fresh LB medium containing 0.1 mg/mL carbenicillin. The cultures were incubated with shaking at 37 C for 4-5 hours, then the cultures were placed at 4° C. for 5-10 minutes. The cultures were then induced with IPTG (1 mM final concentration) and incubated with shaking at 30 C for 4 hours or 20° C. overnight. The cells were harvested by centrifugation at 7000 rpm for 20 minutes at 4° C. The supernatant was removed and the cells were frozen at −70° C. until further use. The proteins were extracted by resuspending the cell pellet in BugBuster reagent (Novagen) using 5 mL reagent per gram of cells. […]

Compound: O=C(O)CNCP(=O)(O)O [glyphosate, N-phosphonomethylglycine]
- Ki: 58 ± 14 µM
